Measurements as given in paper PMC9266914, “Broad Spectrum Functional Activity of Structurally Related Monoanionic Au(III) Bis(Dithiolene) Complexes” (International Journal of Molecular Sciences, 2022).
Where “and” joins values, the source holds several entries; their conditions need not be identical. Equal entries are not always repeated.

Columns and labels:
[1] = system: OVCAR8 ovarian cancer cells; assay: MTT cytotoxicity assay in OVCAR8 (cisplatin resistant) ovarian cancer cells; type: cell-based, human; conditions: 48 h incubation
Procedure, shortened: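 Cells in RPMI-1640 with 10% FBS exposed to complexes at 0.01–100 μM for 24 and/or 48 h at 37 °C. Viability by colorimetric MTT; IC50 derived from dose–response curves.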

P. berghei hepatic stage = assay: In vitro activity against the hepatic stage of P. berghei infection (luciferase, Huh7 cells); type: cell-based, Plasmodium berghei; conditions: hepatic stage, Huh7 cells, 46 hpi
Method: The in vitro liver stage activity of gold complexes was assessed against P. berghei-infected Huh7 cells, as previously described. Briefly, Huh7 cells were cultured in RPMI-1640 medium supplemented with 10% (v/v) fetal bovine serum, 1% (v/v) penicillin/streptomycin, 1% (v/v) glutamine, 1% (v/v) non-essential amino acids and 10 mM HEPES. On the day prior to infection, Huh7 cells were seeded in 96-well plates at a density of approximately 3.1 × 10^4 cell/cm^2 and incubated at 37 °C, 5% CO2. Stock solutions of the complexes were initially prepared in DMSO and serially diluted in infection medium, i.e., culture medium supplemented with gentamicin (50 µg/mL) and fungizone (0.8 µg/mL), to obtain the test concentrations. As a control, DMSO was diluted in infection medium to a percentage that equals that of the highest compound concentrations tested. These dilutions were added to the cells in triplicates and incubated for 1 h at 37 °C, 5% CO2, after which 1 × 10^4 luciferase-expressing P. berghei sporozoites were added to each well. Plates were centrifuged at 1800× g for 5 min at room temperature and incubated for the duration of the assay. At 46 h post-infection (hpi), the impact of each compound concentration on cell viability was assessed by the Alamar Blue (Invitrogen, Buckinghamshire, UK) assay, according to the manufacturer’s recommendations. Infection was next assessed by bioluminescence, employing the Firefly Luciferase Assay Kit 2.0 (Biotium, Fremont, CA, USA), according to the manufacturer’s recommendations. For IC50 determination, nonlinear regression analysis was employed to fit the normalized results of the dose–response curves, using GraphPad Prism 8 (GraphPad software, La Jolla, CA, USA).

C. albicans SC5134 = assay: MIC determination, C. albicans; type: cell-based, Candida albicans; conditions: RPMIG, 24 h, 35 °C
Source text: The bacterial strains Escherichia coli ATCC25922 and Staphylococcus aureus Newman were used in this work and maintained in Lennox Broth (LB) solid medium, composed of 10 g/L tryptone, 5 g/L yeast extract, 5 g/L NaCl and 20 g/L agar. The fungal strains Candida albicans SC5134 and C. glabrata CBS138 were used in this work and maintained in YPD solid medium, composed of 20 g/L glucose, 20 g/L peptone, 10 g/L yeast extract and 15 g/L agar. The strains were isolated from human infections.
The antimicrobial activity of the complexes towards the bacterial and fungal strains was assessed by the determination of the Minimal Inhibitory Concentration (MIC) of each complex towards the indicated microbial strains, based on standard methods, and as previously described. […] Serial 1:2 dilutions of stock solutions were prepared for each complex in Mueller–Hinton (MH) broth (Fluka Analytical) or RPMI-1640 medium (Sigma) supplemented with 20 g/L glucose and buffered with 0.165 M morpholinepropanesulphonic acid (RPMIG) to pH 7.0. Solutions prepared with MH were used for testing bacteria, while those prepared with RPMIG were used for testing fungi. For antibacterial activity assays, the final concentrations ranged from 250 to 0.24 μg/mL (when stock solution final concentration was 10 mg/mL), 125 μg/mL to 0.12 μg/mL (when stock solution final concentration was 5 mg/mL) and 62.5 to 0.06 μg/mL (when stock solution final concentration was 2.5 mg/mL). For antifungal assays, the final concentrations ranged from 125 μg/mL to 0.12 μg/mL (when stock solution final concentration was 10 mg/mL), 62.5 to 0.06 μg/mL (when stock solution final concentration was 5 mg/mL) and 31.25 to 0.03 μg/mL (when stock solution final concentration was 2.5 mg/mL). Then, 100 μL aliquots of adequately diluted bacterial suspensions of S. aureus Newman or E. coli ATCC 25922 were mixed with the MH serially diluted complexes aliquots to obtain 5 × 10^5 CFU/mL. In the case of fungi, cultures were diluted to obtain a final optical density of 0.025, measured at 530 nm (OD530). Bacterial suspensions were prepared from cultures grown for 5 h in MH broth at 37 °C and 250 rev·min^−1 and adequately diluted with fresh MH medium, while fungal suspensions were prepared from overnight cultures grown in YPD broth at 30 °C and 250 rev.min^−1 and diluted in buffered RPMIG. After 22 h of incubation at 37 °C (bacteria) or 24 h at 35 °C (fungi), the wells’ content was resuspended by pipetting and the OD640 (bacteria) or OD530 (fungi) were measured in a SPECTROstar Nano microplate reader (BMG Labtech).
At least three independent experiments were performed in duplicate for each complex under study. […] Positive (no complex) and negative controls (no inoculum) were performed for each experiment. The effect of 5% (V/V) DMSO on microbial growth was also assessed.

HIV-1 SG3.1 = assay: Single-round viral infectivity assay in TZM-bl reporter cells; type: cell-based; conditions: SG3.1 isolate, 48 h, in words
Method: The HIV-1 SG3.1 subtype B strain was obtained by transfection of HEK293T cells with pSG3.1 plasmid using jetPrime transfection reagent (Polyplus-tranfection SA, Illkirch, France) according to the manufacturer’s instructions. The 50% tissue culture infectious dose (TCID50) of the virus was determined in a single-round viral infectivity assay using a luciferase reporter gene assay in TZM-bl cells and calculated using the statistical method of Reed and Muench.
The antiviral activity of Auranofin, [P][AuSEt(=S)] and [P][AuSBu(=S)] compounds was determined in a single-round viral infectivity assay using TZM-bl reporter cells, as previously described. Briefly, TZM-bl cells were infected with 200 TCID50 of SG3.1 in the presence of serial-fold dilutions of the compounds in growth medium, supplemented with DEAE-dextran. After 48 h of infection, luciferase expression was quantified with Pierce Firefly Luc One-Step Glow Assay Kit (ThermoFisher Scientific, Rockford, IL, USA) according to the manufacturer’s instructions.
At least two independent experiments were performed for each antiviral activity analysis. The assay was set up in triplicate wells. Virus controls and cell controls were used.

Compound | IC50 [1] | IC50 (P. berghei hepatic stage) | MIC C. albicans SC5134 (C. albicans SC5134) | anti-HIV-1 activity (HIV-1 SG3.1)
CCn1c2c(sc1=[Se])[S][Au-]1([S]c3sc(=[Se])n(CC)c3[S]1)[S]2.c1ccc([P+](c2ccccc2)(c2ccccc2)c2ccccc2)cc1 [[P][AuSEt(=Se)]] | 970 ± 180 nM | 416 ± 123 nM | >62.5 µg/mL | –
CC(C)n1c2c(sc1=S)[Se][Au-]1([Se]c3sc(=S)n(C(C)C)c3[Se]1)[Se]2.c1ccc([P+](c2ccccc2)(c2ccccc2)c2ccccc2)cc1 [[P][AuSeiPr(=S)]] | 3860 ± 910 nM | 748 ± 70.2 nM | >31.25 µg/mL | –
CCCCn1c2c(sc1=S)[S][Au-]1([S]c3sc(=S)n(CCCC)c3[S]1)[S]2.c1ccc([P+](c2ccccc2)(c2ccccc2)c2ccccc2)cc1 [[P][AuSBu(=S)]] | 1410 ± 560 nM | 470 ± 115 nM | >62.5 µg/mL | none of the compounds presented anti-HIV-1 activity
CCn1c2c(sc1=S)[S][Au-]1([S]c3sc(=S)n(CC)c3[S]1)[S]2.c1ccc([P+](c2ccccc2)(c2ccccc2)c2ccccc2)cc1 [[P][AuSEt(=S)]] | 850 ± 190 nM | 474 ± 110 nM | >62.5 µg/mL | none of the compounds presented anti-HIV-1 activity
CC(=O)OC[C@H]1O[C@@H]([S-])[C@H](OC(C)=O)[C@@H](OC(C)=O)[C@@H]1OC(C)=O.CCP(CC)CC.[Au+] [Auranofin, reference compound] | 1040 ± 410 nM | – | 7.9 µg/mL and 7.9 ± 0.5 µg/mL | none of the compounds presented anti-HIV-1 activity
